According to patent US4837228A, “Antiinflammatory and antimicrobial compounds and compositions” (The University of Mississippi, priority 1982, dated 1989):
Converted amounts (≈) assume the structure as drawn. Read-outs that look alike come from different tables or passages of the source.

Legend:
Assay type in all cases: cell-based
[1] = test system: erythrocyte (heat-induced hemolysis); experiment: erythrocyte membrane stabilization assay (heat-induced erythrocyte hemolysis); conditions: Erythrocyte, 1 × 10^-4 M
Protocol: The published procedure (Proc. Soc. Exp. Biol. Med. 1967; 125; 837-842 Brow et al) for in vitro assay for antiinflammatory agents based on stabilization of erythrocytes was used. All compounds were prepared for administration by dissolving in physiologic saline or suspending in 2% ethanol in saline and the pH adjusted to 7.4 The concentrations tested in one series are given in Table 8. Aspirin (ASA) and phenylbutazone were used as positive controls for comparison of activity. Tests using this procedure were successfully and repeatedly using either 40% or 20% RBC suspensions.

Bacillus subtilis [2] = experiment: MIC, two-fold (broth) serial dilution, B. subtilis; conditions: Bacillus subtilis, read-out: MIC
Protocol: (§1) Both qualitative and quantitative screens were performed. Qualitative screening was accomplished using the agar well diffusion assay technque while quantitative screening was accomplished by the two-fold (broth) serial dilution method to determine the minimum inhibitory concentration (MIC). Innoculation was accomplished with one loop-full of a 1:10 dilution of the 24-hour-old broth culture, (fungal cultures and M.smegmatis more often required 48 to 72 hours of incubation) of the test organisms in sterile water. Streptomycin sulfate was used as a positive control for antibacterial activity while amphitericin B was used as an antifungal positive control. Organisms utilized in the screens included gram-positive, gram-negative, and acid-fast bacteria as well as different types of fungi. […] An intermediate type activity is seen where R is hydrogen. However, where R is lengthened up to C15 a decrease in activity was noted. Total saturation of the two double bonds in the compounds having a methyl side chain lead, in most cases, to an increase in both antifungal and antibacterial activity.

Staphylococcus aureus [3] = experiment: MIC, two-fold (broth) serial dilution, S. aureus; conditions: Staphylococcus aureus, read-out: MIC
Protocol: as §1

Mycobacterium smegmatis [4] = experiment: MIC, two-fold (broth) serial dilution, M. smegmatis
Protocol: as §1

Candida albicans [5] = experiment: MIC, two-fold (broth) serial dilution, C. albicans
Protocol: as §1

Saccharomyces cerevisiae [6] = experiment: MIC, two-fold (broth) serial dilution, S. cerevisiae
Protocol: as §1

[7] = test system: Trichophyton mentagrophytes; experiment: MIC, two-fold (broth) serial dilution, T. mentagrophytes
Protocol: as §1

Bacillus subtilis [8] = experiment: agar well diffusion assay, B. subtilis; conditions: from edge of agar well
Protocol: as §1

Staphylococcus aureus [9] = experiment: agar well diffusion assay, S. aureus; conditions: from edge of agar well
Protocol: as §1

Mycobacterium smegmatis [10] = experiment: agar well diffusion assay, M. smegmatis; conditions: from edge of agar well
Protocol: as §1

Escherichia coli = experiment: agar well diffusion assay, E. coli; conditions: from edge of agar well
Protocol: as §1

Pseudomonas aeruginosa = experiment: agar well diffusion assay, Ps. aeruginosa; conditions: from edge of agar well
Protocol: as §1

Candida albicans [11] = experiment: agar well diffusion assay, C. albicans; conditions: from edge of agar well
Protocol: as §1

Saccharomyces cerevisiae [12] = experiment: agar well diffusion assay, S. cerevisiae; conditions: from edge of agar well
Protocol: as §1

[13] = test system: Trichophyton mentagrophytes; experiment: agar well diffusion assay, T. mentagrophytes; conditions: for width of inhibition zone: from edge of agar well
Protocol: as §1

Aspergillus niger = experiment: agar well diffusion assay, A. niger; conditions: from edge of agar well
Protocol: as §1

[14] = Mycolicibacterium smegmatis, 24 h, read-out: MIC
[15] = Mycolicibacterium smegmatis, 48 h, read-out: MIC
[16] = Trichophyton mentagrophytes, 48 h, read-out: MIC
[17] = Trichophyton mentagrophytes, 72 h, read-out: MIC
[18] = 48 hr, listed as Iso CBC (VIII)
[19] = 72 hr, listed as Iso CBC (VIII)

SMILES	MIC (Staphylococcus aureus [3]; 24 h)	MIC (Staphylococcus aureus [3]; 48 h)	MIC (Mycobacterium smegmatis [4]; [14])	MIC (Mycobacterium smegmatis [4]; [15])	MIC [7, 16]	MIC [7, 17]	width of inhibition zone (Bacillus subtilis [8]; 24 hr)	width of inhibition zone (Bacillus subtilis [8]; 48 hr)	width of inhibition zone (Staphylococcus aureus [9]; 24 hr)	width of inhibition zone (Staphylococcus aureus [9]; 48 hr)	width of inhibition zone (Mycobacterium smegmatis [10]; 24 hr)	width of inhibition zone (Mycobacterium smegmatis [10]; 48 hr)	width of inhibition zone (Escherichia coli; 24 hr)	width of inhibition zone (Escherichia coli; 48 hr)	width of inhibition zone (Pseudomonas aeruginosa; 24 hr)	width of inhibition zone (Candida albicans [11]; 48 hr)	width of inhibition zone (Candida albicans [11]; 72 hr)	width of inhibition zone (Saccharomyces cerevisiae [12]; 48 hr)	width of inhibition zone (Saccharomyces cerevisiae [12]; 72 hr)	width of inhibition zone (Aspergillus niger; 48 hr)	other results
CC(C)=CCCC1(C)C=Cc2c(O)cccc2O1 (stereo not drawn) [CBC (VI), 2-methyl-2-(4'-methyl-pent-3'-enyl)-5-hydroxychromene]	12.5 µg/mL (≈ 51.2 µM)	12.5 µg/mL (≈ 51.2 µM)	12.5 µg/mL (≈ 51.2 µM)	12.5 µg/mL (≈ 51.2 µM)	25 µg/mL (≈ 102 µM)	25 µg/mL (≈ 102 µM)	10. mm	10. mm	15. mm	15. mm	20. mm	18. mm	3. mm	2. mm	3. mm	7. mm	5. mm	10. mm	8. mm	9. mm	inhibition at 100 µM ([1]; Table 8, read-out: inhibition of heat-induced erythrocyte hemolysis): 69%; MIC (Bacillus subtilis [2]; 24 h): 6.25 µg/mL (≈ 25.6 µM); MIC (Bacillus subtilis [2]; 48 h): 12.5 µg/mL (≈ 51.2 µM); MIC (Candida albicans [5]; 48 hr): 50.0 µg/mL (≈ 205 µM); MIC (Candida albicans [5]; 72 hr): 50.0 µg/mL (≈ 205 µM); MIC (Candida albicans [5]; Candida albicans, 48 h, read-out: MIC): 50 µg/mL (≈ 205 µM); MIC (Candida albicans [5]; Candida albicans, 72 h, read-out: MIC): 50 µg/mL (≈ 205 µM); MIC (Saccharomyces cerevisiae [6]; 48 hr): 25.0 µg/mL (≈ 102 µM); MIC (Saccharomyces cerevisiae [6]; 72 hr): 25.0 µg/mL (≈ 102 µM); MIC (Saccharomyces cerevisiae [6]; Saccharomyces cerevisiae, 48 h, read-out: MIC): 25 µg/mL (≈ 102 µM); MIC (Saccharomyces cerevisiae [6]; Saccharomyces cerevisiae, 72 h, read-out: MIC): 25 µg/mL (≈ 102 µM); MIC ([7]; 48 hr): 25.0 µg/mL (≈ 102 µM); MIC ([7]; 72 hr): 25.0 µg/mL (≈ 102 µM); width of inhibition zone ([13]; 48 hr): 20. mm; width of inhibition zone ([13]; 72 hr): 19. mm; width of inhibition zone (Aspergillus niger; 72 hr): 5. mm
CC(C)=CCCC1(C)C=Cc2ccc(O)cc2O1 (stereo not drawn) [Iso CBC (VII), 2-methyl-2(4'-methyl-pent-3'-enyl)-7-hydroxychromene]	12.5 µg/mL (≈ 51.2 µM)	12.5 µg/mL (≈ 51.2 µM)	25 µg/mL (≈ 102 µM)	25 µg/mL (≈ 102 µM)	6.25 µg/mL (≈ 25.6 µM)	6.25 µg/mL (≈ 25.6 µM)	10. mm	7. mm	10. mm	10. mm	6. mm	4. mm	2. mm	2. mm	4. mm	3. mm	2. mm	2. mm	2. mm	1. mm	inhibition at 100 µM ([1]; read-out: inhibition of heat-induced erythrocyte hemolysis, Table 8): 43%; MIC (Mycobacterium smegmatis [4]; 24 hr): 12.5 µg/mL (≈ 51.2 µM); MIC (Mycobacterium smegmatis [4]; 48 hr): 12.5 µg/mL (≈ 51.2 µM); MIC (Candida albicans [5]; [18]): 12.5 µg/mL (≈ 51.2 µM); MIC (Candida albicans [5]; [19]): 25 µg/mL (≈ 102 µM); width of inhibition zone (Mycobacterium smegmatis [10]; 24 hr, listed as Iso CBC (VIII)): 5. mm; width of inhibition zone (Mycobacterium smegmatis [10]; [18]): 5. mm; width of inhibition zone (Pseudomonas aeruginosa; 48 hr): 4. mm; width of inhibition zone (Candida albicans [11]; [18]): 4. mm; width of inhibition zone (Candida albicans [11]; [19]): 5. mm; width of inhibition zone (Saccharomyces cerevisiae [12]; [18]): 4. mm; width of inhibition zone (Saccharomyces cerevisiae [12]; [19]): 4. mm; agar well diffusion result in words ([13]; one entry across 48 hr and 72 hr): No growth
